Data: patent US20050032246A1, “Method of immobilizing membrane-associated molecules” (priority 2002, published 2005)

Assays:
[1] = molecular target: IMR-32 nAChR; type: binding, human; conditions: IMR-32 nAChR entrapped in DGS; constant 3H-epibetadine; FIG. 10
Protocol: Sodium silicate or DGS derived sol precursors were prepared by methods described previously.^64 The sol solution was mixed 1:1 (v/v) with the buffered liposome or reconstituted nAChR solution, in the bottoms of 96 well microtiter plates to a final volume of 100 μL. For entrapment of IMR-32 cells for ion flux assays, the nAChR containing stock described above was uses for entrapment without further dilution. For radioassays using IMR-32 nAChR, the stock sample as provided directly from Perkin Elmer was diluted four fold in 25 mM HEPES, 100 mM KCl, 5 mM EGTA, pH 7.4 and mixed 1:1 (v/v) in DGS derived sol. The samples were aged for 1 hr at 4° C. For Torpedo Californica nAChR, the stock sample was diluted four fold in 150 mM HEPES, 100 mM KCl, 5 mM EDTA, pH 7.4, and mixed 1:1 (v/v) with sodium silicate derived sol.
Samples of either entrapped Torpedo californica nAChR, IMR-32 nAChR or Asolectin liposomes were formed in the bottoms of 96-well microtiter plates. […] The radioactive decay from ^3H-epibatidine was then counted for 5 min to determine the ratio of free ligand existing in solution. […] Using the information from these samples the amount of receptor bound ligand could be determined. […] Free ligand was determined as described above.

[2] = tested on: gramicidin A; assay: Safranine O ion-channel activity assay of reconstituted gramicidin A entrapped in DGS derived silicate; type: biochemical; conditions: various levels of CaCl2 with 3.0 M KI; several hundred millimolar Ca2+ required; FIG. 6
Protocol: The Gramicidin A stock was prepared in a solution of chloroform, trifluoroethanol and dimethylsulfoxide (19:5:1 volume ratio) to a final concentration of 4.79×10^−4M. Gramicidin A stock solutions were mixed with the lipid stock solutions (20 mg.mL^−1 DOPC in chloroform) in disposable glass vials to provide final ratios of gA:lipid of either 0.39 mol % or 0.94 mol %. The organic solvent was removed by evaporation under a dry nitrogen gas stream to remove the bulk of the organic solvent, followed by evaporation under vacuum for two hours. […]
For ion-channel studies, reconstitution of gramicidin A samples was done using an unbuffered aqueous solution containing 50 μM safranine O at pH 7.0. […] Liposome solutions that were used for tryptophan fluorescence studies consisted of 0.94 mol % of gramicidin A in DOPC that was hydrated to final concentrations of 1.0 μM of gA in 100 mM phosphate buffer at pH 7.0. […]
The fluorescence intensity response of safranine O was monitored using the MICROMAX microwell plate reader. Fluorescence emission was monitored as a function of time at 565 nm with an excitation wavelength of 528 nm upon addition of 125 μL of various concentrations of potassium iodide to the top of the monolithic samples in the microwell plate to create an ionic gradient across the membrane. […]

[3] = tested on: IMR-32 nAChR; type: biochemical, human
Protocol: Lipid films consisting of EggPC, EggPE, Sphingomylin and cholesterol in mol ratios of 55:27:9:9 percent, respectively, were prepared as described earlier, and rehydrated to a final lipid concentration of 3.0 mg/mL and Fluo-3 concentration of 65 μM. The liposome stock was then mixed with a small amount of DMM bringing the solution to a final concentration of 0.2 mM. Immediately following this, IMR-32 nAChR stock was added to the detergent lipid mixture and allowed to incubate at 4° C. for 90 min. Following this 15 mg of SM2-Biobeads were added to the mixture and incubated for 1 hr. This was repeated 3 times with the final addition allowed to incubate for a period of 12 hrs. […]
In these assays, IMR-32 nAChR containing liposomes with an intraliposomal solution of Fluo-3 were entrapped as described above in 1:1 (v/v) in DGS derived silica. […] Antagonism of the nAChR ion channel was measured by addition of 25 μL of the nAChR antagonist d-tubocurarine to the top of the nAChR-containing monolith in the 96-well plate. Ligand-gated ion-flux was monitored through time dependent changes in fluorescence intensity upon the addition of 50 μL of 3 M CaCl2 using a TECAN-Safire microwell platereading fluorescence system. Fluo-3 emission was monitored and 526 nm with an excitation wavelength of 488 nm, emission and excitation bandpasses of 5 and 7.5 nm, and a detector gain of 130 V, over a period of 45 min. […]

[4] = Fluo-3 Ca(II) influx into DOPC liposomes in buffered solution after addition of ionophore; type: biochemical; conditions: Ca(II) outside, fluo-3 inside, FIG. 14
Protocol: DOPC stock solutions were purchased in chloroform at a concentration of 20 mg.mL^−1. DOPC stock solution was dispensed in disposable glass vials and the organic solvent was removed by evaporation under a dry nitrogen gas stream to remove the bulk of the organic solvent, followed by evaporation under vacuum for two hours. The resulting dried lipid films were then rehydrated in a buffer consisting of 25 mM EGTA, 25 mM EDTA, 10% Sucrose (w/w), 10 mM KCl, 0.529 mM Fluo-3, pH 7.6 to a final lipid concentration of 2 mg/mL. The hydrated liposomes were then extruded through 600 nm pores, with an Avanti—MINIEXTRUDER at room temperature to create a mono-disperse suspension of unilamellar liposomes 600 nm in diameter. The external Fluo-3 was removed by filtration through a column packed with Sephadex G25 to yield liposomes with dye only on the interior of the liposome.
In this case, Ca(II) is initially present only outside the liposome, while fluo-3 is present only inside the liposome. The addition of ionomycin results in the incorporation of the ionophore into the membrane, and produces a channel through which Ca(II) can move into the interior of the liposome. […]

With `CN1CCCC1c1cccnc1` (single isomer, unassigned; (-)) [nicotine, (−)-nicotine] the “IC50 and KI values compared with solution based experiments” value [1] was “in good agreement with those obtained from solution based experiments”.

With `[Ca+2].[Cl-].[Cl-]` [CaCl2] the “potential induced fluorescence response to potassium ion flux (inhibition of ion-channel activity)” value [2] was “significant and concentration-dependent decrease”.

With `O=c1cccc2n1C[C@@H]1CNC[C@H]2C1` [cytisine] the “fluo-3 emission response to Ca(II) (ion flux) upon addition of agonist” value [3] was “acts as an agonist”.

With `COc1cc2c3cc1Oc1cc(ccc1O)C[C@@H]1c4c(cc(OC)c(O)c4Oc4ccc(cc4)C[C@@H]3N(C)CC2)CC[N+]1(C)C` [d-tubocurarine] the “IC50 and KI values compared with solution based experiments” value [1] was “in good agreement with those obtained from solution based experiments” and the “fluo-3 emission response to Ca(II) (ion flux) upon addition of antagonist” value ([3]; liposomes previously incubated with excess nicotine, FIG. 12) was “the response is reduced”.

In the case of `C[C@H](CCC(=O)O)C[C@H](C)C[C@H](C)C(=O)/C=C(\O)[C@H](C)C[C@H](C)C/C=C/[C@@H](C)[C@@H](O)[C@@H](C)[C@@H](O)C[C@@H]1CC[C@@](C)([C@H]2CC[C@@](C)([C@@H](C)O)O2)O1` [ionomycin], the “increase of fluo-3 response on Ca(II) influx” value [4] is reported as 3 fold.
